In the CheMixHub viscosity set:
± gives the uncertainty stated by the source.

Assay: xn = mol fraction of the nth substance listed

CCCCCCCC + Cc1ccccc1
303.15 K, 101.33 kPa
Settings | viscosity [mPa·s]
x2 = 0.2634 | 0.47 ± 0.095
x2 = 0.4184 | 0.464 ± 0.094
x2 = 0.8282 | 0.485 ± 0.098
x2 = 0.888 | 0.498 ± 0.1
x2 = 0.9417 | 0.508 ± 0.1

CCCCCCCCCCCCCC + Cc1ccccc1
viscosity [mPa·s], 101 kPa
Settings | x1 = 0.1106 | x1 = 0.1996 | x1 = 0.2947 | x1 = 0.3965 | x1 = 0.5013 | x1 = 0.5988 | x1 = 0.7002 | x1 = 0.7982 | x1 = 0.8995
298.15 K | 0.697 ± 0.047 | 0.803 ± 0.053 | 0.909 ± 0.059 | 1.038 ± 0.066 | 1.168 ± 0.073 | 1.318 ± 0.082 | 1.468 ± 0.09 | 1.664 ± 0.1 | 1.86 ± 0.11
303.15 K | 0.654 ± 0.045 | 0.748 ± 0.05 | 0.842 ± 0.055 | 0.962 ± 0.062 | 1.081 ± 0.068 | 1.211 ± 0.076 | 1.341 ± 0.083 | 1.513 ± 0.092 | 1.685 ± 0.1
308.15 K | 0.613 ± 0.042 | 0.699 ± 0.047 | 0.786 ± 0.052 | 0.894 ± 0.058 | 1.002 ± 0.064 | 1.115 ± 0.07 | 1.228 ± 0.077 | 1.384 ± 0.085 | 1.54 ± 0.094

CCCCCO + Cc1ccccc1
Settings | viscosity [mPa·s]
293.15 K, 101.33 kPa, x1 = 0.0767 | 0.623 ± 0.008
293.15 K, 101.33 kPa, x1 = 0.155 | 0.678 ± 0.009
293.15 K, 101.33 kPa, x1 = 0.2336 | 0.747 ± 0.01
293.15 K, 101.33 kPa, x1 = 0.3074 | 0.834 ± 0.011
293.15 K, 101.33 kPa, x1 = 0.3459 | 0.888 ± 0.011
293.15 K, 101.33 kPa, x1 = 0.4529 | 1.094 ± 0.014
293.15 K, 101.33 kPa, x1 = 0.5308 | 1.29 ± 0.016
293.15 K, 101.33 kPa, x1 = 0.601 | 1.512 ± 0.018
293.15 K, 101.33 kPa, x1 = 0.6728 | 1.795 ± 0.021
293.15 K, 101.33 kPa, x1 = 0.7788 | 2.338 ± 0.027
293.15 K, 101.33 kPa, x1 = 0.8616 | 2.883 ± 0.033
293.15 K, 101.33 kPa, x1 = 0.8898 | 3.096 ± 0.035
303.15 K, 101 kPa, x1 = 0.0999 | 0.564 ± 0.02
303.15 K, 101 kPa, x1 = 0.1999 | 0.6272 ± 0.022
303.15 K, 101 kPa, x1 = 0.3 | 0.7213 ± 0.025
303.15 K, 101 kPa, x1 = 0.4 | 0.8366 ± 0.028
303.15 K, 101 kPa, x1 = 0.4999 | 0.9954 ± 0.033
303.15 K, 101 kPa, x1 = 0.6001 | 1.221 ± 0.039
303.15 K, 101 kPa, x1 = 0.6999 | 1.475 ± 0.047
303.15 K, 101 kPa, x1 = 0.8001 | 1.822 ± 0.057
303.15 K, 101 kPa, x1 = 0.9001 | 2.289 ± 0.071
303.15 K, 101.33 kPa, x2 = 0.0745 | 2.508 ± 0.044
303.15 K, 101.33 kPa, x2 = 0.2114 | 1.81 ± 0.032
303.15 K, 101.33 kPa, x2 = 0.4291 | 1.101 ± 0.019
303.15 K, 101.33 kPa, x2 = 0.5202 | 0.925 ± 0.016
303.15 K, 101.33 kPa, x2 = 0.609 | 0.787 ± 0.014
303.15 K, 101.33 kPa, x2 = 0.7058 | 0.678 ± 0.012
303.15 K, 101.33 kPa, x2 = 0.8063 | 0.592 ± 0.011
303.15 K, 101.33 kPa, x2 = 0.8629 | 0.564 ± 0.01
303.15 K, 101.33 kPa, x2 = 0.9443 | 0.536 ± 0.01
308.15 K, 101 kPa, x1 = 0.0999 | 0.5329 ± 0.019
308.15 K, 101 kPa, x1 = 0.1999 | 0.5883 ± 0.021
308.15 K, 101 kPa, x1 = 0.3 | 0.6717 ± 0.023
308.15 K, 101 kPa, x1 = 0.4 | 0.7723 ± 0.026
308.15 K, 101 kPa, x1 = 0.4999 | 0.9102 ± 0.03
308.15 K, 101 kPa, x1 = 0.6001 | 1.106 ± 0.036
308.15 K, 101 kPa, x1 = 0.6999 | 1.324 ± 0.042
308.15 K, 101 kPa, x1 = 0.8001 | 1.617 ± 0.051
308.15 K, 101 kPa, x1 = 0.9001 | 2.077 ± 0.065
308.15 K, 101.33 kPa, x2 = 0.0745 | 2.202 ± 0.039
308.15 K, 101.33 kPa, x2 = 0.2114 | 1.611 ± 0.028
308.15 K, 101.33 kPa, x2 = 0.4291 | 1.001 ± 0.018
308.15 K, 101.33 kPa, x2 = 0.5202 | 0.846 ± 0.015
308.15 K, 101.33 kPa, x2 = 0.609 | 0.726 ± 0.013
308.15 K, 101.33 kPa, x2 = 0.7058 | 0.63 ± 0.012
308.15 K, 101.33 kPa, x2 = 0.8063 | 0.554 ± 0.01
308.15 K, 101.33 kPa, x2 = 0.8629 | 0.53 ± 0.01
308.15 K, 101.33 kPa, x2 = 0.9443 | 0.507 ± 0.007
313.15 K, 101 kPa, x1 = 0.0999 | 0.4988 ± 0.018
313.15 K, 101 kPa, x1 = 0.1999 | 0.5518 ± 0.02
313.15 K, 101 kPa, x1 = 0.3 | 0.6271 ± 0.022
313.15 K, 101 kPa, x1 = 0.4 | 0.7149 ± 0.025
313.15 K, 101 kPa, x1 = 0.4999 | 0.8351 ± 0.028
313.15 K, 101 kPa, x1 = 0.6001 | 1.004 ± 0.033
313.15 K, 101 kPa, x1 = 0.6999 | 1.192 ± 0.038
313.15 K, 101 kPa, x1 = 0.8001 | 1.442 ± 0.046
313.15 K, 101 kPa, x1 = 0.9001 | 1.838 ± 0.058
313.15 K, 101.33 kPa, x2 = 0.0745 | 1.94 ± 0.035
313.15 K, 101.33 kPa, x2 = 0.2114 | 1.439 ± 0.026
313.15 K, 101.33 kPa, x2 = 0.4291 | 0.911 ± 0.016
313.15 K, 101.33 kPa, x2 = 0.5202 | 0.778 ± 0.014
313.15 K, 101.33 kPa, x2 = 0.609 | 0.67 ± 0.012
313.15 K, 101.33 kPa, x2 = 0.7058 | 0.587 ± 0.011
313.15 K, 101.33 kPa, x2 = 0.8063 | 0.52 ± 0.01
313.15 K, 101.33 kPa, x2 = 0.8629 | 0.5 ± 0.007
313.15 K, 101.33 kPa, x2 = 0.9443 | 0.484 ± 0.007
318.15 K, 101 kPa, x1 = 0.0999 | 0.4725 ± 0.017
318.15 K, 101 kPa, x1 = 0.1999 | 0.5195 ± 0.019
318.15 K, 101 kPa, x1 = 0.3 | 0.5876 ± 0.021
318.15 K, 101 kPa, x1 = 0.4 | 0.6645 ± 0.023
318.15 K, 101 kPa, x1 = 0.4999 | 0.7703 ± 0.026
318.15 K, 101 kPa, x1 = 0.6001 | 0.9178 ± 0.03
318.15 K, 101 kPa, x1 = 0.6999 | 1.08 ± 0.035
318.15 K, 101 kPa, x1 = 0.8001 | 1.296 ± 0.042
318.15 K, 101 kPa, x1 = 0.9001 | 1.63 ± 0.052
323.15 K, 101 kPa, x1 = 0.0999 | 0.4511 ± 0.017
323.15 K, 101 kPa, x1 = 0.1999 | 0.4907 ± 0.018
323.15 K, 101 kPa, x1 = 0.3 | 0.5523 ± 0.02
323.15 K, 101 kPa, x1 = 0.4 | 0.6202 ± 0.022
323.15 K, 101 kPa, x1 = 0.4999 | 0.7139 ± 0.025
323.15 K, 101 kPa, x1 = 0.6001 | 0.8422 ± 0.028
323.15 K, 101 kPa, x1 = 0.6999 | 0.982 ± 0.032
323.15 K, 101 kPa, x1 = 0.8001 | 1.169 ± 0.038
323.15 K, 101 kPa, x1 = 0.9001 | 1.459 ± 0.047

ClC(Cl)=C(Cl)Cl + Cc1ccccc1
303.15 K, 101 kPa
Settings | viscosity [mPa·s]
x1 = 0.1502 | 0.551 ± 0.013
x1 = 0.2552 | 0.574 ± 0.006
x1 = 0.2612 | 0.574 ± 0.012
x1 = 0.3392 | 0.597 ± 0.006
x1 = 0.3745 | 0.599 ± 0.012
x1 = 0.4608 | 0.621 ± 0.006
x1 = 0.4715 | 0.629 ± 0.011
x1 = 0.5666 | 0.662 ± 0.01
x1 = 0.5759 | 0.652 ± 0.006
x1 = 0.6428 | 0.691 ± 0.01
x1 = 0.6834 | 0.688 ± 0.007
x1 = 0.6905 | 0.708 ± 0.01
x1 = 0.7448 | 0.706 ± 0.007
x1 = 0.7529 | 0.73 ± 0.009
x1 = 0.8376 | 0.76 ± 0.009
x1 = 0.8395 | 0.738 ± 0.007
x1 = 0.9336 | 0.793 ± 0.008

O=[N+]([O-])c1ccccc1 + Cc1ccccc1
viscosity [mPa·s], 101 kPa
Settings | x1 = 0.115 | x1 = 0.227 | x1 = 0.344 | x1 = 0.457 | x1 = 0.577 | x1 = 0.675 | x1 = 0.787 | x1 = 0.87
298.15 K | 0.622 ± 0.006 | 0.702 ± 0.006 | 0.803 ± 0.007 | 0.894 ± 0.008 | 1.03 ± 0.009 | 1.169 ± 0.01 | 1.374 ± 0.012 | 1.542 ± 0.013
303.15 K | 0.586 ± 0.005 | 0.66 ± 0.006 | 0.743 ± 0.007 | 0.837 ± 0.007 | 0.956 ± 0.008 | 1.08 ± 0.009 | 1.252 ± 0.011 | 1.42 ± 0.012
308.15 K | 0.554 ± 0.005 | 0.618 ± 0.006 | 0.694 ± 0.006 | 0.783 ± 0.007 | 0.922 ± 0.008 | 1.042 ± 0.009 | 1.157 ± 0.01 | 1.313 ± 0.011
